Data from PMC3208381 (European journal of medicinal chemistry, 2011).

Molecular target: HCV NS5B polymerase (NS5BCΔ21) (Hepatitis C virus genotype 1b, UniProt P26663)
Experiment: NS5B inhibition assay
Format: biochemical
Conditions: for fold enhancement of inhibitory activity relative to 5-methyl analog 6a: NS5B IC50 compared with compound 6a; for fold decrease in activity relative to thiophene parent compound 5a: NS5B IC50 compared with compound 5a; for fold more active than 15a: NS5B IC50 compared with compound 15a

O=C(O)/C(O)=C/C(=O)c1ccc(Br)s1 [Compound 8a, 4-(5-Bromothiophen-2-yl)-2-hydroxy-4-oxobut-2-enoic acid]
fold enhancement of inhibitory activity relative to 5-methyl analog 6a: ~ 2 fold

O=C(O)/C(O)=C/C(=O)c1nccs1 [Compound 12a, 2-Hydroxy-4-(4-thiazole-2-yl)-4-oxobut-2-enoic acid]
fold decrease in activity relative to thiophene parent compound 5a: ~ 1.8 fold

O=C(O)/C(O)=C/C(=O)c1ccccc1[N+](=O)[O-] [Compound 16a, 2-Hydroxy-4-(2-nitrophenyl)-4-oxobut-2-enoic acid]
fold more active than 15a: ~ 2 fold

Cc1ccc(C(=O)/C=C(\O)C(=O)O)s1 [Compound 6a, 2-Hydroxy-4-(5-methylthiophen-2-yl)-4-oxobut-2-enoic acid]
fold decrease in activity relative to thiophene parent compound 5a: approximately 3 fold

O=C(O)/C(O)=C/C(=O)c1ccccc1F [Compound 17a, 4-(2-Fluorophenyl)-2-hydroxy-4-oxobut-2-enoic acid]
fold more active than 15a: ~ 2 fold

O=C(O)/C(O)=C/C(=O)c1cccs1 [Compound 5a, 2-Hydroxy-4-(thiophen-2-yl)-4-oxobut-2-enoic acid]
fold increase in inhibitory activity over compound 4a (NS5B IC50 compared with compound 4a): ~ 2.2 fold

Cc1csc(C(=O)/C=C(\O)C(=O)O)c1 [Compound 10a, 2-Hydroxy-4-(4-methylthiophen-2-yl)-4-oxobut-2-enoic acid]
fold enhancement of inhibitory activity relative to 5-methyl analog 6a: ~ 2 fold

O=C(O)/C(O)=C/C(=O)c1ccc(Cl)s1 [Compound 7a, 2-Hydroxy-4-(5-chlorothiophene-2-yl)-4-oxobut-2-enoic acid]
fold enhancement of inhibitory activity relative to 5-methyl analog 6a: ~ 2 fold

Cc1ccsc1C(=O)/C=C(\O)C(=O)O [Compound 11a, 2-Hydroxy-4-(3-methylthiophen-2-yl)-4-oxobut-2-enoic acid]
fold enhancement of inhibitory activity relative to 5-methyl analog 6a: ~ 7 fold

O=C(O)/C(O)=C/C(=O)c1cc2cc(Br)ccc2o1 [Compound 3a, 4-(5-Bromobenzofuran-2-yl)-2-hydroxy-4-oxobut-2-enoic acid]
fold improvement in inhibitory activity over compound 2a (NS5B IC50 compared with compound 2a): ~ 3.5 fold
